Each structure is given as a SMILES string.

This series deals with hCLRN1^N48K-YFP; clrn1^+/+ larvae. Briefly: Larval survival/lethality by TG or ART dose and treatment duration. Type of series: in vivo, zebrafish. The arrangement: key: ‘S’ = Surviving; ‘L’ = Lethal. As for the experimental part: Thapsigargin (TG, 1 mg, Sigma-Aldrich, #T9033) stock in 100% DMSO was diluted in E3 medium to make the required final concentration of the drug. Five different concentrations that were earlier reported to induce ER stress and are non-toxic or lower lethal dose (LD50) in the zebrafish (0.1, 0.5, 1.0, 2.5, 5 μM concentrations) were used in this study. A total of 25 larvae per dosage and treatment duration from the genotypes hCLRN1^N48K-YFP; clrn1^+/+ and hCLRN1-YFP; clrn1^+/+, no older than 72 hours post fertilization (hpf) at the start of the experiment, were placed in a well of 12-well uncoated culture plate (BD Falcon, Canaan, CT). For ER stress induction, larvae were incubated in different dosage of TG from 1 hr to overnight at 28.5° C., followed by three times wash with E3 medium at 28.5° C. (Table 2) and hair cells from the hCLRN1^N48K-YFP; clrn1^+/+ and hCLRN1-YFP; clrn1^+/+ lines were examined for the respective protein distribution pattern in the hair cell bundle and the cell body. Live confocal images of ‘O’ and ‘ML1’ neuromasts per larvae were capture using Leica SP2 confocal microscope with 40× oil immersion objective. Unadjusted 1 micron middle section images of four hair bundles per ML1 neuromast of larvae from TG treated and untreated groups were analyzed using Image J software version v. 1.48 (FIG. 4). The hair bundle trafficked amount of hCLRN1^N48K protein corresponds to the change in YFP intensity in the hair bundle in the TG treated larvae. Quantification of YFP fluorescence intensity was carried out as described in the previous experiment for unconventional trafficking of hCLRN1^N48K-YFP by hGRASP55 cargos. […] Student's t-test was used to confirm the observed changes in the YFP intensity in the hair bundles of TG treatment compared to untreated hCLRN1^N48K-YFP; clrn1^+/+ larvae, is significant (FIG. 4J).
Arthemisinin (ART, 100 mg, Sigma-Aldrich, #361593) in 100% DMSO was diluted in E3 medium to make the final concentration. Five different concentrations within the range of reported ER stress inducing level in the zebrafish (0.1, 0.25, 0.4, 0.5, and 1 μM concentrations) were used in this study. A total of 25 larvae, no older than 72 hpf at the start of the experiment, were placed in a well of 12-well uncoated culture plate (BD 35 Falcon, Canaan, CT). For ER stress induction, larvae were exposed in different dosage of ART for different duration at 28.5° C. (Table 3) and washed three times with E3 medium, and hair cells from the hCLRN1-YFP; clrn1^+/+ larvae and hCLRN1^N48K-YFP; clrn1^+/+ larvae were examined for the respective protein distribution pattern in the hair cell bundle and the cell body. Live confocal Z-stack images of otic ‘O’ and middle ‘ML’ neuromasts per larvae of hCLRN1-YFP; clrn1^+/+ larvae and hCLRN1^N48K-YFP; clrn1^+/+ genotypes from the untreated group in the E3 medium, 0.01% DMSO treatment group and ART treatment group were capture using Leica SP2 confocal microscope at 40× oil immersion objective. Hair cells from 2 otic (0) and 2 middle (ML) neuromasts per larvae were examined for the change in YFP intensity in the hair bundle and cell body. From the captured confocal images of these neuromast hair cells, unadjusted 1 micron middle section images of 4 mature hair bundles from ML1 neuromast per larvae were considered for the YFP intensity quantification in unadjusted ROI covering the middle section of each hair bundles using the imageJ software. […] The hair bundle trafficked amount of hCLRN1^N48K protein corresponds to the change in YFP intensity in the hair bundle in the ART treated larvae. Quantification of YFP fluorescence intensity was carried out as described in the previous experiment for unconventional trafficking of hCLRN1^N48K-YFP by hGRASP55 cargos. Student's t-test was used to confirm the observed changes in the YFP intensity in the hair bundles of ART treatment compared to untreated and TG treated hCLRN1^N48K-YFP; clrn1^+/+ larvae, is significant (FIG. 4J).

As to `C/C=C(/C)C(=O)O[C@H]1C(C)=C2[C@H]([C@@H]1OC(=O)CCCCCCC)[C@@](C)(OC(C)=O)C[C@H](OC(=O)CCC)[C@@]1(O)[C@H]2OC(=O)[C@@]1(C)O` [TG, Thapsigargin], the Larvae survival result is, setting by setting: (TG 0.1 μM, exposure 1 h) “S”; (TG 0.1 μM, exposure 2 h) “S”; (TG 0.1 μM, exposure 3 h) “S”; (TG 0.1 μM, exposure 4 h) “S”; (TG 0.1 μM, exposure 8 h) “S”; (TG 0.1 μM, exposure 16 h) “S”. In addition, the Larvae survival result is, setting by setting: (TG 0.5 μM, exposure 1 h) “S”; (TG 0.5 μM, exposure 2 h) “S”; (TG 0.5 μM, exposure 3 h) “S”; (TG 0.5 μM, exposure 4 h) “S”; (TG 0.5 μM, exposure 8 h) “S”; (TG 0.5 μM, exposure 16 h) “L”. For the same compound, the Larvae survival result is on record as “S” (TG 1.0 μM, exposure 1 h); “S” (TG 1.0 μM, exposure 2 h); “S” (TG 1.0 μM, exposure 3 h); “S” (TG 1.0 μM, exposure 4 h); “L” (TG 1.0 μM, exposure 8 h); “L” (TG 1.0 μM, exposure 16 h). The Larvae survival result was “L” (TG 2.5 μM, exposure 1 h); “L” (TG 2.5 μM, exposure 2 h); “L” (TG 2.5 μM, exposure 3 h); “L” (TG 2.5 μM, exposure 4 h); “L” (TG 2.5 μM, exposure 8 h); “L” (TG 2.5 μM, exposure 16 h). For the same compound, the Larvae survival result was “L” (TG 5.0 μM, exposure 1 h); “L” (TG 5.0 μM, exposure 2 h); “L” (TG 5.0 μM, exposure 3 h); “L” (TG 5.0 μM, exposure 4 h); “L” (TG 5.0 μM, exposure 8 h); “L” (TG 5.0 μM, exposure 16 h).

With `C[C@@H]1CC[C@H]2[C@@H](C)C(=O)O[C@@H]3O[C@@]4(C)CC[C@@H]1[C@]32OO4` [ART, Artemisinin], the Larvae survival result is “L” (ART 0.4 μM, exposure 8 h); “L” (ART 0.4 μM, exposure 10 h); “L” (ART 0.5 μM, exposure 1 h); “L” (ART 0.5 μM, exposure 2 h); “L” (ART 0.5 μM, exposure 4 h); “L” (ART 0.5 μM, exposure 6 h). Besides, the Larvae survival result by setting is: (ART 0.5 μM, exposure 8 h) “L”; (ART 0.5 μM, exposure 10 h) “L”; (ART 1.0 μM, exposure 1 h) “L”; (ART 1.0 μM, exposure 2 h) “L”; (ART 1.0 μM, exposure 4 h) “L”; (ART 1.0 μM, exposure 6 h) “L”. Moreover, the Larvae survival result is reported as “L” (ART 1.0 μM, exposure 8 h) and “L” (ART 1.0 μM, exposure 10 h).

Source of the values: patent publication US11865103B2, “Methods of treating disorders associated with glycosylation defective proteins” (CASE WESTERN RESERVE UNIVERSITY, priority 2016, dated 2024).
